Results on 21 compounds are retold here after US7323490B2, “Pyrrole compounds and uses thereof” (Ambit Biosciences Corporation, priority 2003, dated 2008).

One experiment has as its target T1, CLB2 (Homo sapiens, UniProt P22676).
T1 construct: made in house; host or cells: T7 phage amplified in E. coli
T1 sequence (P22676 1-271): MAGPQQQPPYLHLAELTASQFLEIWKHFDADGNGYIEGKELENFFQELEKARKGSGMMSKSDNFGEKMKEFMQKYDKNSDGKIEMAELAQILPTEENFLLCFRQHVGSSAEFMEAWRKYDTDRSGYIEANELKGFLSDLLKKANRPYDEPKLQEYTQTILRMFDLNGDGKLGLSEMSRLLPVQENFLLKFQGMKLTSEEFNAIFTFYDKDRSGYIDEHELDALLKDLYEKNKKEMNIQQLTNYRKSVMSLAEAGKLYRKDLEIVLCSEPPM
The experiment can be described thus: T7 phage display competition binding assay (immobilized atorvastatin), CLB2. The conditions noted are these: soluble competitor vs atorvastatin-coated affinity matrix; T7 phage displaying CLB2. The source says:
(§1) The T7 phage displaying human PDE6D and CLB2 were obtained following the procedure of WO 01/18234, published Mar. 15, 2001, and U.S. patent applications Ser. No. 10/115,442, “Phage Display Affinity Filter and Forward Screen,” filed Apr. 2, 2002 and Ser. No. 10/214,654, “Uncoupling DNA Insert Propagation and Protein Display,” filed Aug. 7, 2002. […] The phage eluate was then amplified by growth in E. coli and the affinity enrichment procedure was repeated.
(§2) The dissociation constants, Kd's, for the interaction between the pyrrole compounds and the novel targets were obtained following the procedure of the co-pending patent applications U.S. Ser. Nos. 10/115,442, “Phage Display Affinity Filter and Forward Screen,” filed Apr. 2, 2002 and 60/480,587, “Protein Family Profiling Tool and Methods,” filed Jun. 20, 2003.

The target of experiment [1] is T2, PDE6D (Homo sapiens, UniProt O43924). Briefly: T7 phage display competition binding assay (immobilized atorvastatin), PDE6D. Also on record: made in house; host or cells: T7 phage amplified in E. coli. As to conditions: soluble competitor vs atorvastatin-coated affinity matrix; T7 phage displaying human PDE6D.
Description: as §1, §2

The target in another experiment is T3, HMG-CoA reductase (Homo sapiens, UniProt P04035).
T3 sequence (P04035 1-888): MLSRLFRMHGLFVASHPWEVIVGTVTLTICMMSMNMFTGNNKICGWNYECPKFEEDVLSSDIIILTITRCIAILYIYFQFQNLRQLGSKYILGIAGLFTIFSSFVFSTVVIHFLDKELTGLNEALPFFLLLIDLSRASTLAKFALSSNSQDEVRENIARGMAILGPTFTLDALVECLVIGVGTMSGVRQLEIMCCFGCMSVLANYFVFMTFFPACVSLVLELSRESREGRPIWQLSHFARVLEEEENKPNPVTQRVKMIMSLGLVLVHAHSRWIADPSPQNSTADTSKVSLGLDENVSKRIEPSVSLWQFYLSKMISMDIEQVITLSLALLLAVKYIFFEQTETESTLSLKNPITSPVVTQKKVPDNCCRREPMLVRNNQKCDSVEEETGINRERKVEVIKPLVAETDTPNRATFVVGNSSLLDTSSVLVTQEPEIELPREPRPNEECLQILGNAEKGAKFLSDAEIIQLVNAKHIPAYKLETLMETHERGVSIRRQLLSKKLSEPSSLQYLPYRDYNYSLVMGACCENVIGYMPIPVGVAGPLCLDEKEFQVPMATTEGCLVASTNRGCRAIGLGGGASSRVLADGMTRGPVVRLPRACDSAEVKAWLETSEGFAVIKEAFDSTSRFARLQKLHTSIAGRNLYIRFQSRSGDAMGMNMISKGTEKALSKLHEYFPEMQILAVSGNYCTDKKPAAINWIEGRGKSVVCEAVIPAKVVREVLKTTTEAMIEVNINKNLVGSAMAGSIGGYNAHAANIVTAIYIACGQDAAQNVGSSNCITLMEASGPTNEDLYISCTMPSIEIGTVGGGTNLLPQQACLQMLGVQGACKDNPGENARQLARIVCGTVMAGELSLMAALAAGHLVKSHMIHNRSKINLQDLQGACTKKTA
The experiment can be described thus: enzymatic activity-based HMG-CoA reductase assay. The experiment is classed as biochemical. As to conditions: concentrations up to 4 μM. The method, then: In addition, compounds 781430, 781066, 780780, 780754, 779974, 781456, 782236, 782756, 783250 and 780520 were tested in enzymatic activity-based HMG-CoA reductase assays. […] Blank cells indicate there was no detectable interaction while the “nd” designation indicates the Kd was not determined.

Experiment [2] has as its target T2, PDE6D. The experiment can be described thus: phage-based competition binding screen at 2 μM. The conditions noted are these: 2 μM competitor, duplicate. Also noted: made in house; host or cells: phage. The procedure: Forty-four molecules were screened for PDE6D binding activity in a standard phage-based competition binding assay, as described in co-pending U.S. patent applications Ser. No. 10/115,442, filed 2 Apr. 2002, and Ser. No. 10/406,797 filed on 2 Apr. 2003 (or PCT International Application PCT/US03/10247 filed 2 Apr. 2003). All compounds were screened in duplicate (duplicate sets of bars) at a concentration of 2 μM.

The Kd is the constant that tells how readily two partners part at equilibrium. A high value points to lower affinity.

Each structure is given as a SMILES string.

Turning to `CC(C)c1c(C(=O)Nc2ccccc2)c(-c2ccccc2)c(-c2ccc(F)cc2)n1CCCCCCC(=O)O` [Compound 780728], the Kd is 1650 nM on CLB2 and 350 nM on PDE6D [1]. For `CC(C)c1c(C(=O)Nc2ccccc2)c(-c2ccccc2)c(-c2ccc(F)cc2)n1CCCCCCO` [Compound 780702] the same measures were 2000 nM and 114 nM. Compound `CC(C)c1c(C(=O)Nc2ccccc2)c(-c2ccccc2)c(-c2ccc(F)cc2)n1CCS(=O)O` [Compound 783666] gave a Kd at CLB2 of 1850 nM. For `CC(C)c1c(C(=O)Nc2ccccc2)c(-c2ccccc2)c(-c2ccc(F)cc2)n1CCO` [Compound 780078], the Kd at CLB2 came out at 2340 nM; at PDE6D [1], 488 nM. As to `CC(=O)NCCn1c(-c2ccc(F)cc2)c(-c2ccccc2)c(C(=O)Nc2ccccc2)c1C(C)C` [Compound 780754], the Kd was found to be 1830 nM on CLB2 and 58 nM at PDE6D [1]. In addition, on HMG-CoA reductase, the “inhibition of the activity of HMG-CoA reductase” value is on record as “none of the tested compounds inhibited”.

Consider `CC(C)c1c(C(=O)Nc2ccccc2)c(-c2ccccc2)c(-c2ccc(F)cc2)n1CC(O)CC(=O)O` (centres unmarked) [Compound 783770], for which the equilibrium dissociation constant (Kd) on CLB2 was found to be 335 nM; at PDE6D [1], 1100 nM.

At PDE6D [1], `CC(C)c1c(C(=O)Nc2ccccc2)c(-c2ccccc2)c(-c2ccc(F)cc2)n1CCOCCO` [Compound 780598] came in with a Kd of 300 nM. Same read-out and setting: the figure for `CC(C)c1c(C(=O)Nc2ccccc2)c(-c2ccccc2)c(-c2ccc(F)cc2)n1CC(=O)OC(C)(C)C` [Compound 780546] is 880 nM. Regarding `CC(C)c1c(C(=O)Nc2ccccc2)c(-c2ccccc2)c(-c2ccc(F)cc2)n1CC[C@@H]1C[C@H](CC(=O)O)OC(C)(C)O1` [Compound 782964], the Kd on CLB2 turned out to be 9000 nM; on PDE6D [1], 685 nM. With `CC(C)c1c(C(=O)Nc2ccccc2)c(-c2ccccc2)c(-c2ccc(F)cc2)n1C` [Compound 780104], the figures for the Kd at CLB2 and at PDE6D [1] were 6070 nM and 114 nM, respectively. Also, the “fraction of PDE6D-displaying phage bound to immobilized atorvastatin (screen outcome)” value (“fraction of PDE6D-displaying phage bound” below) at PDE6D [2] was “candidate lead compounds”. With `CC(C)c1[nH]c(-c2ccccc2)c(-c2ccccc2)c1C(=O)Nc1ccccc1` [Compound 780858], the Kd amounted to 1640 nM on CLB2 and 60 nM at PDE6D [1]. Besides, the “fraction of PDE6D-displaying phage bound” value on PDE6D [2] is reported as “candidate lead compounds”. `CC(C)c1c(C(=O)Nc2ccccc2)c(-c2ccccc2)c(-c2ccc(F)cc2)n1Cc1ccccc1` [Compound 780000]: the affinity on PDE6D [1], expressed as Kd, was 598 nM. As for `CCC(C)C(CO)n1c(-c2ccc(F)cc2)c(-c2ccccc2)c(C(=O)Nc2ccccc2)c1C(C)C` (centres unmarked) [Compound 780936], the Kd was found to be 3000 nM at CLB2 and 141 nM on PDE6D [1]. As for `COCC(C(O)c1ccccc1)n1c(-c2ccc(F)cc2)c(-c2ccccc2)c(C(=O)Nc2ccccc2)c1C(C)C` (centres unmarked) [Compound 780910], the Kd at CLB2 came out at 1000 nM; at PDE6D [1], 280 nM. At PDE6D [1], `CCCCCn1c(-c2ccc(F)cc2)c(-c2ccccc2)c(C(=O)Nc2ccccc2)c1C(C)C` [Compound 782366] displayed a Kd of 805 nM. With `CC(C)c1c(C(=O)Nc2ccccc2)c(-c2ccccc2)c(-c2ccc(F)cc2)n1CCN1CCOCC1` [Compound 780052], the results for the Kd at CLB2 and on PDE6D [1] were 6000 nM and 387 nM, respectively. As to `CC(C)c1c(C(=O)Nc2ccccc2)c(-c2ccccc2)c(-c2ccc(F)cc2)n1CCCN1CCCC1=O` [Compound 780520], the results for the Kd on CLB2 and on PDE6D [1] were 1850 nM and 44 nM, respectively. Also, at HMG-CoA reductase, the “inhibition of the activity of HMG-CoA reductase” value was “none of the tested compounds inhibited”. In addition, on PDE6D [2], the “fraction of PDE6D-displaying phage bound” value was “candidate lead compounds”. Consider `COc1ccc(-c2[nH]c(C(C)C)c(C(=O)Nc3ccccc3)c2-c2ccccc2)cc1` [Compound 780988], for which the Kd on CLB2 was found to be 6000 nM; at PDE6D [1] it was 430 nM.

On PDE6D [1], `CCOC(=O)CCn1c(-c2ccc(F)cc2)c(-c2ccccc2)c(C(=O)Nc2ccccc2)c1C(C)C` [Compound 780026] came in with a dissociation constant Kd of 6550 nM. In the case of `CC(C)c1c(C(=O)Nc2ccccc2)c(-c2ccccc2)c(-c2ccc(F)cc2)n1CCCCCO` [Compound 780676], the Kd was 1890 nM on CLB2 and 61 nM at PDE6D [1]. Also, on PDE6D [2], the “fraction of PDE6D-displaying phage bound” value is reported as “candidate lead compounds”. `CC(C)c1c(C(=O)Nc2ccccc2)c(-c2ccccc2)c(-c2ccc(F)cc2)n1[C@H](C)C(=O)OC(C)(C)C` [Compound 780650] showed a dissociation constant Kd on CLB2 of 2100 nM.
